In ChEMBL document CHEMBL4373740, “Synthesis and biological evaluation of new MET inhibitors with 1,6-naphthyridinone scaffold” (Eur J Med Chem, 2020):

Tests used:
[1] = molecular target: Tyrosine-protein kinase receptor UFO (Homo sapiens, UniProt P30530); assay: Inhibition of recombinant […] human N-terminal GST-tagged AXL (473 to end residues) expressed in baculovirus infected Sf21 insect cells using biotin as substrate preincubated for 5 mins followed by substrate addition and measured after 30 to 60 mins in presence of ATP by HTRF assay
[2] = molecular target: Tyrosine-protein kinase Mer (Homo sapiens, UniProt Q12866); assay: Inhibition of recombinant human GST-tagged cMER (578 to 872 residues) expressed in baculovirus infected Sf21 insect cells using biotin as substrate preincubated for 5 mins followed by substrate addition and measured after 30 to 60 mins in presence of ATP by HTRF assay
[3] = molecular target: T1, BDNF/NT-3 growth factors receptor (Homo sapiens, UniProt Q16620); assay: (§1) Inhibition of recombinant human His-tagged TRKB catalytic domain (526 to 838 residues) expressed in baculovirus expression system using biotin as substrate preincubated for 5 mins followed by substrate addition and measured after 30 to 60 mins in presence of ATP by HTRF assay
Angiopoietin-1 receptor [4] = molecular target: T2, Angiopoietin-1 receptor (Homo sapiens, UniProt Q02763); assay: Inhibition of recombinant human GST-tagged TEK (817 to 1101 residues) expressed in baculovirus expression system using biotin as substrate preincubated for 5 mins followed by substrate addition and measured after 30 to 60 mins in presence of ATP by HTRF assay
T2 sequence (Q02763 whole entry, the tested form may be a part): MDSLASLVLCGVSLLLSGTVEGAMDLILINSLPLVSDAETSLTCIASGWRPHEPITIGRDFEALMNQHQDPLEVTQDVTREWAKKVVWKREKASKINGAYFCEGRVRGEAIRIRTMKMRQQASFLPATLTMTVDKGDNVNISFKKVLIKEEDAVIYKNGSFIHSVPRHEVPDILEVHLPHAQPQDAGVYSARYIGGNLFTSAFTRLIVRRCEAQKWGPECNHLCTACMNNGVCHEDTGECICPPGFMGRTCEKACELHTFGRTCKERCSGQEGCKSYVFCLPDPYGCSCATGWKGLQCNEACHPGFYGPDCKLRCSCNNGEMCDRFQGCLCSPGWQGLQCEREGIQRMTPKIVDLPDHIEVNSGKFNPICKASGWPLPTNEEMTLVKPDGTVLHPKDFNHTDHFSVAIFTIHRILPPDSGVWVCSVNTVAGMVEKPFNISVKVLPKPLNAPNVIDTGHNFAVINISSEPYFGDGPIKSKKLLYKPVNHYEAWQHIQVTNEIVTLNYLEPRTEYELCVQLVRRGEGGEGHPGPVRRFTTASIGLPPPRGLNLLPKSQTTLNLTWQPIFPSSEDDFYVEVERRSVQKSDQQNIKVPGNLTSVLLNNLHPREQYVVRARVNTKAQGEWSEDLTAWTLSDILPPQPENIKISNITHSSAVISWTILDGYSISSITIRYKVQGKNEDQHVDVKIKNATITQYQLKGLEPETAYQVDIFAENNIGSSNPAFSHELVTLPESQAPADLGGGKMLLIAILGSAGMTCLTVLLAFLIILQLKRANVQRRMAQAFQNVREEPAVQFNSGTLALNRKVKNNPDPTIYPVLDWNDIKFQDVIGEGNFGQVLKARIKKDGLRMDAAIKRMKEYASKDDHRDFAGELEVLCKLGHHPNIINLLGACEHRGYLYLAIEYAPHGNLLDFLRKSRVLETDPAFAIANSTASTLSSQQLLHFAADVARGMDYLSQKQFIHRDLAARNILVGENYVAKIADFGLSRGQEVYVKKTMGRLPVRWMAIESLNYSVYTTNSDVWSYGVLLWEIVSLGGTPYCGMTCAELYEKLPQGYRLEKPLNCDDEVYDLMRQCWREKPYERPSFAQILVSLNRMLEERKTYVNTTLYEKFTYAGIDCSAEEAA

[5] = Antiproliferative activity against human NIH-H460 cells at 10 uM incubated for 72 hrs by MTT assay relative to control; format: functional; settings: NIH-H460, 72 h
MKN-45 = assay: Antiproliferative activity against human MKN45 cells at 10 uM incubated for 72 hrs by MTT assay relative to control; format: functional; settings: MKN-45, 72 h
[6] = Tmax in Sprague-Dawley rat at 5.0 mg/kg, ig measured for 15 min to 72 hrs by LC-MS/MS analysis; format: ADME, organism-based; settings: in vivo, po
[7] = Cmax in Sprague-Dawley rat at 5.0 mg/kg, ig measured for 15 min to 72 hrs by LC-MS/MS analysis; format: ADME, organism-based; design: dose 5 mg/kg, route intragastric; settings: in vivo, po
[8] = Volume of distribution in Sprague-Dawley rat at 1.0 mg/kg, iv measured for 5 min to 72 hrs by LC-MS/MS analysis; format: ADME, organism-based; settings: in vivo
[9] = molecular target: Receptor-type tyrosine-protein kinase FLT3 (Homo sapiens) (UniProt P36888); assay: Inhibition of recombinant full length human His-tagged FLT3 expressed in baculovirus expression system at 1 uM using biotin as substrate preincubated for 5 mins followed by substrate addition and measured after 30 to 60 mins in presence of ATP by HTRF assay relative to control
[10] = molecular target: T1, BDNF/NT-3 growth factors receptor; assay: as §1, with “system at 1 uM” for “system”, “assay relative to control” for “assay”
Target sequence in this assay (Q16620 32-822 limits assumed): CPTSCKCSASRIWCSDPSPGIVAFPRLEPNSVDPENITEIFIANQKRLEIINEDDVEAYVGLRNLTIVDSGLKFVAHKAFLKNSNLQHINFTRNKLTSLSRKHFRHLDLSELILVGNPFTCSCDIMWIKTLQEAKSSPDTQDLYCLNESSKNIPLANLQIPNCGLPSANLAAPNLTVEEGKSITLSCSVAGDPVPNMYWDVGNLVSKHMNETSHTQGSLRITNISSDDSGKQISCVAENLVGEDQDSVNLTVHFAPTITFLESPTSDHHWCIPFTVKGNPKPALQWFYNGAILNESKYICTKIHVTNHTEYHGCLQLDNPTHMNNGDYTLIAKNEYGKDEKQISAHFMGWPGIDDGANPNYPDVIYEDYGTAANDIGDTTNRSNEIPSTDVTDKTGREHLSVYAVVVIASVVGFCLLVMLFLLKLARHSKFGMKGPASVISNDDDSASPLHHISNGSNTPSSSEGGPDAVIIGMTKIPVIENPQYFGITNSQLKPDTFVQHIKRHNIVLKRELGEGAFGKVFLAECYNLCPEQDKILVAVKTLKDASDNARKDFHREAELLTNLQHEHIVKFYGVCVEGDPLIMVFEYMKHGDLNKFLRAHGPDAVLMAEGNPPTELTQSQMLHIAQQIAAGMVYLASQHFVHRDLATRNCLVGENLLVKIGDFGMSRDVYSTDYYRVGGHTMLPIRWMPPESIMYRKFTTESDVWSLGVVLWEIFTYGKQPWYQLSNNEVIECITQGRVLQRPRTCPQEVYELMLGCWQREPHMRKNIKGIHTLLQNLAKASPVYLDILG

[11] = molecular target: Tyrosine-protein kinase Lck (Homo sapiens) (UniProt P06239); assay: Inhibition of recombinant full length human His-tagged LCK expressed in baculovirus expression system at 1 uM using biotin as substrate preincubated for 5 mins followed by substrate addition and measured after 30 to 60 mins in presence of ATP by HTRF assay relative to control
Angiopoietin-1 receptor [12] = molecular target: T2, Angiopoietin-1 receptor; assay: Inhibition of recombinant human GST-tagged TEK (817 to 1101 residues) expressed in baculovirus expression system at 1 uM using biotin as substrate preincubated for 5 mins followed by substrate addition and measured after 30 to 60 mins in presence of ATP by HTRF assay relative to control
[13] = molecular target: Tyrosine-protein kinase ABL1 (Homo sapiens) (UniProt P00519); assay: Inhibition of recombinant full length human His-tagged ABL1 expressed in baculovirus expression system at 1 uM using biotin as substrate preincubated for 5 mins followed by substrate addition and measured after 30 to 60 mins in presence of ATP by HTRF assay relative to control
[14] = molecular target: ALK tyrosine kinase receptor (Homo sapiens) (UniProt Q9UM73); assay: Inhibition of human GST-tagged ALK cytoplasmic domain (1060 to end residues) expressed in sf9 cells at 1 uM using biotin as substrate preincubated for 5 mins followed by substrate addition and measured after 30 to 60 mins in presence of ATP by HTRF assay relative to control
[15] = molecular target: Cyclin-dependent kinase 5/CDK5 activator 1 (Homo sapiens) (UniProt Q00535+Q15078); assay: Inhibition of recombinant full length human GST/His-tagged CDK5/p25 expressed in baculovirus expression system at 1 uM using biotin as substrate preincubated for 5 mins followed by substrate addition and measured after 30 to 60 mins in presence of ATP by HTRF assay relative to control
Sequence of Cyclin-dependent kinase 5/CDK5 activator 1 (Homo sapiens) (Q00535 whole entry): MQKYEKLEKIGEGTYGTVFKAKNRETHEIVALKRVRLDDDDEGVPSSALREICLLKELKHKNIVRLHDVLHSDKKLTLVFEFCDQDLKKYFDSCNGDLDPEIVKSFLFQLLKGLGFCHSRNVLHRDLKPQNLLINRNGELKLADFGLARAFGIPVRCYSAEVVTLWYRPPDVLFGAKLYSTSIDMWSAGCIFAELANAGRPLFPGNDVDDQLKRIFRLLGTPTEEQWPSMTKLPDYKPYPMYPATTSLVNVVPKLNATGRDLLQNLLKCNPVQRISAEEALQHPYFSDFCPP
Sequence of Cyclin-dependent kinase 5/CDK5 activator 1 (Homo sapiens) (Q15078 99-307 partner limits assumed): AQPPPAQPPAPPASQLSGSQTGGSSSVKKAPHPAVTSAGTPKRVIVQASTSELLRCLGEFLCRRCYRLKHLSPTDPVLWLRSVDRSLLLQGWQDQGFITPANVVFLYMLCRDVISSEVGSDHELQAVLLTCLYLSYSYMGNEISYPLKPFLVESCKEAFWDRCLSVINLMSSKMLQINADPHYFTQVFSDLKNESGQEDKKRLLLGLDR

[16] = molecular target: Dual specificity tyrosine-phosphorylation-regulated kinase 4 (Homo sapiens) (UniProt Q9NR20); assay: Inhibition of recombinant human GST-tagged DYRK4 expressed in baculovirus system at 1 uM using biotin as substrate preincubated for 5 mins followed by substrate addition and measured after 30 to 60 mins in presence of ATP by HTRF assay relative to control
Sequence of Dual specificity tyrosine-phosphorylation-regulated kinase 4 (Homo sapiens) (Q9NR20 whole entry, the tested form may be a part): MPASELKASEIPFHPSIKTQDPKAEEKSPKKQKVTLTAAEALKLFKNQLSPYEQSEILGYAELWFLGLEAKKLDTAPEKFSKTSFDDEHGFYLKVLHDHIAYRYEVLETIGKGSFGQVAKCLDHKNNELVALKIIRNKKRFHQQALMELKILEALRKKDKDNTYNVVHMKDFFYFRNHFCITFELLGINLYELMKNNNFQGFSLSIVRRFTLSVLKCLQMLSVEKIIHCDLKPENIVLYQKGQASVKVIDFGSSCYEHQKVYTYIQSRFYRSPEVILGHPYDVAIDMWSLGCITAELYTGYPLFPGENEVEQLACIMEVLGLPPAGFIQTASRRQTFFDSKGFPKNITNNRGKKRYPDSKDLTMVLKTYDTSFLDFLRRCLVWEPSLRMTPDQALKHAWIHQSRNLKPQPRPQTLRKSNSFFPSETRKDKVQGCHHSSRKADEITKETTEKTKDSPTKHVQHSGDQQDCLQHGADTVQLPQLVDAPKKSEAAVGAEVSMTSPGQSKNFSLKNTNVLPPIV

[17] = molecular target: Epidermal growth factor receptor (Homo sapiens) (UniProt P00533); assay: Inhibition of recombinant human GST-tagged EGFR (668 to 1210 residues) expressed in baculovirus expression system at 1 uM using biotin as substrate preincubated for 5 mins followed by substrate addition and measured after 30 to 60 mins in presence of ATP by HTRF assay relative to control
[18] = molecular target: Tyrosine-protein kinase Fes/Fps (Homo sapiens) (UniProt P07332); assay: (§2) Inhibition of recombinant human His-tagged FES expressed in baculovirus system at 1 uM using biotin as substrate preincubated for 5 mins followed by substrate addition and measured after 30 to 60 mins in presence of ATP by HTRF assay relative to control
[19] = molecular target: Fibroblast growth factor receptor 1 (Homo sapiens) (UniProt P11362); assay: as §2, with “human N-terminal” for “human”, “FGFR1 catalytic domain (399 to 822 residues)” for “FES”, “infected Sf21 insect cells” for “system”
Sequence of Fibroblast growth factor receptor 1 (Homo sapiens) (P11362 22-822 limits assumed): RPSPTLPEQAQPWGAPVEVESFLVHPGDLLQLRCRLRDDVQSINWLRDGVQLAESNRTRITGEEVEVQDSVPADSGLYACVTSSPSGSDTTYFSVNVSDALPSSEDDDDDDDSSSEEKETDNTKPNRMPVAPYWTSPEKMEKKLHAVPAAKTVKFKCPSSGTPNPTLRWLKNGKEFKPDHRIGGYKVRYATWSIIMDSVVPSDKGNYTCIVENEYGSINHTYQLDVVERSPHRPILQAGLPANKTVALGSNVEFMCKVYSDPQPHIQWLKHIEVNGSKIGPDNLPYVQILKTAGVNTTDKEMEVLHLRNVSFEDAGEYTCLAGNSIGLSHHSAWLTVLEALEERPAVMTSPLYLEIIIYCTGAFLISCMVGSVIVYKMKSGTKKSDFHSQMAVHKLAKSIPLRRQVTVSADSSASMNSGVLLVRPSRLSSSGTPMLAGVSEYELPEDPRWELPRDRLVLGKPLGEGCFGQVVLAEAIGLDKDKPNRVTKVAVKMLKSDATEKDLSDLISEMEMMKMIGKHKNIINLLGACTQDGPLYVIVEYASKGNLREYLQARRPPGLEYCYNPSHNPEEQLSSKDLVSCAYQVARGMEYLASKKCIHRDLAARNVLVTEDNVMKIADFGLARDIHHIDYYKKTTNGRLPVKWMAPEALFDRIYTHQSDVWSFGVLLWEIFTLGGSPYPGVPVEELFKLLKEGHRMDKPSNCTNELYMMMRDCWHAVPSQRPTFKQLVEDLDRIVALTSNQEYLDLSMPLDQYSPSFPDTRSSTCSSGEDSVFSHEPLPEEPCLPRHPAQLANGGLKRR

[20] = molecular target: Tyrosine-protein kinase JAK3 (Homo sapiens) (UniProt P52333); assay: Inhibition of recombinant full length human GST-tagged JAK3 expressed in baculovirus expression system at 1 uM using biotin as substrate preincubated for 5 mins followed by substrate addition and measured after 30 to 60 mins in presence of ATP by HTRF assay relative to control
Sequence of Tyrosine-protein kinase JAK3 (Homo sapiens) (P52333 whole entry): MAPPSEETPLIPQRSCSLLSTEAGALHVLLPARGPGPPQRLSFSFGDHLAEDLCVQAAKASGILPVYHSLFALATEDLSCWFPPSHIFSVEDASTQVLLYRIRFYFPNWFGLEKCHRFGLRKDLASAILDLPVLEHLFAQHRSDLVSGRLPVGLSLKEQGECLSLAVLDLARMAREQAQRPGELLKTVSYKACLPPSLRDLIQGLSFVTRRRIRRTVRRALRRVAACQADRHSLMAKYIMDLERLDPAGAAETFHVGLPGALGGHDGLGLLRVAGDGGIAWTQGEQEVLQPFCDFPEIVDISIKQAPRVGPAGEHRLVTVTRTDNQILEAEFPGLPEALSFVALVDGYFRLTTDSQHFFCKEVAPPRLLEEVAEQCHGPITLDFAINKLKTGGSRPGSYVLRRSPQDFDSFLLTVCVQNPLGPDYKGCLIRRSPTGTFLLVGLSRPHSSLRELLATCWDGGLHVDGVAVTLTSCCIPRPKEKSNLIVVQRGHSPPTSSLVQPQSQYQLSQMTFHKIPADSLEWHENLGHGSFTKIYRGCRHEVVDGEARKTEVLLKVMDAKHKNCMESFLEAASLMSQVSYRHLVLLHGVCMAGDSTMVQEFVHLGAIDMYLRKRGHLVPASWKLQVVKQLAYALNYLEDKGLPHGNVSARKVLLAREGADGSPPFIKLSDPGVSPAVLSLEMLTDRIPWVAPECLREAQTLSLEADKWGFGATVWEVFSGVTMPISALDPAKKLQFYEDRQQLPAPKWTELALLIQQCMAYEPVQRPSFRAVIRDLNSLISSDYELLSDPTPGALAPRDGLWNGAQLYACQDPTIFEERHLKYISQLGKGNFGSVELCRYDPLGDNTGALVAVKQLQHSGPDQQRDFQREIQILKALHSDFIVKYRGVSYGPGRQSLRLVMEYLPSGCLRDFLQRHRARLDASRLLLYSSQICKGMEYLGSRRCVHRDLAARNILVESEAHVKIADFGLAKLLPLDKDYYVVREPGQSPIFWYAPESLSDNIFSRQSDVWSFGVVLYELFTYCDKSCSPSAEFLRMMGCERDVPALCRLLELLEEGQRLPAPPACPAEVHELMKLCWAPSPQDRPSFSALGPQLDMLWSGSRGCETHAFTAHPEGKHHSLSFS

[21] = molecular target: Tyrosine-protein kinase Lyn (Homo sapiens) (UniProt P07948); assay: Inhibition of recombinant human N-terminal GST-tagged LYN A expressed in insect cells at 1 uM using biotin as substrate preincubated for 5 mins followed by substrate addition and measured after 30 to 60 mins in presence of ATP by HTRF assay relative to control
[22] = molecular target: Proto-oncogene tyrosine-protein kinase Src (Homo sapiens) (UniProt P12931); assay: Inhibition of recombinant full length human untagged SRC expressed in baculovirus expression system at 1 uM using biotin as substrate preincubated for 5 mins followed by substrate addition and measured after 30 to 60 mins in presence of ATP by HTRF assay relative to control

IC50 [1]: 8.2 nM | IC50 [2]: 4.2 nM | IC50 [3]: 58.8 nM | IC50 (Angiopoietin-1 receptor [4]): 26.3 nM | Tmax [6]: 8.7 h | Cmax [7]: 7800 ng/mL | Vd [8]: 0.4 L/kg | inhibition [9]: > 80% | inhibition [10]: > 80% | inhibition [11]: 50 to 79% | inhibition (Angiopoietin-1 receptor [12]): 50 to 79% | inhibition [13]: < 50% | inhibition [14]: < 50% | inhibition [15]: < 50% | inhibition [16]: < 50% | inhibition [17]: < 50% | inhibition [18]: < 50% | inhibition [19]: < 50% | inhibition [20]: < 50% | inhibition [21]: < 50% | inhibition [22]: < 50%
SMILES: Cn1cc(-c2ccc(F)cc2)c(=O)c2c(Nc3ccc(Oc4ccnc(NC(=O)C5CC5)c4)c(F)c3)nccc21
inhibition at 10 µM [5]: 15.6% | inhibition at 10 µM (MKN-45): 30.9%
